# Patent US20140295547A1, “METHOD TO CONSTRUCT IN-VITRO HUMAN BLOOD BRAIN BARRIER MODEL” (National Chung Cheng University, priority 2013, published 2014)
# Tested on: in-vitro human BBB model (HBMECs co-cultured with HBVPs and HAs)
# Assay: Permeability of propidium iodide across the in-vitro human BBB model
# Type: in vitro ADME
# Description: The present invention uses HBMECs and different ratios of HBVPs and HAs to construct a BBB model and measures TEER and permeability of propidium iodide (PI) to evaluate the integrity and performance of the BBB model. The present invention also uses a fluorescent dye Calcein to detect the activity of P-gp. The present invention also detects the concentrations of the transforming growth factor-β1 (TGF-β1), the matrix. metalloproteinases (MMP-9), and the vascular endothelial growth factor (VEGF), which influence the integrity of the BBB model.
# Refer to FIG. 1 and FIG. 2. […] In Step S10, defrost a plurality of small tubes of frozen cell-containing liquids via placing them in water having a temperature of 37° C. for 1 minute until all the frozen cell-containing liquids completely liquefy and become the suspension liquids of HBVPs, HAs and HBMECs. In Step S12, respectively suck the suspension liquids of HBVPs, HAs and HBMECs from the small tubes, respectively place the suspension liquids in pretreated culture plates, and culture the suspension liquids in a carbon-dioxide incubator having a temperature of 37° C. and a relative humidity of 95%. In Step S14, provide a pretreated culture dish 10 having a filter membrane 12 made of PET (polyethylene terephthalate); flip over the filter membrane 12; attach the suspension liquids of HBVPs and HAs by a ratio of 1:1, 1:2, or 1:6 to the bottom surface of the filter membrane 12 of the culture dish 10 to plant HBVPs 14 and HAs 16 on the bottom surface, wherein the time for attaching is 1 hour and the total planting density of HBVPs 14 and HAs 16 is 4×10^5 cells/cm^2. In Step S16, fill the suspension liquid of HBMECs into the top surface of the filter membrane 12 to plant HBMECs 18 on the top surface, wherein the planting density of HBMECs 18 is 4×10^5 cell/cm^2. […]
smiles,measurement,setting,value
CC[N+](C)(CC)CCC[n+]1c(-c2ccccc2)c2cc(N)ccc2c2ccc(N)cc21.[I-].[I-] [propidium iodide],PI permeability in comparison with the BBB model with HBVPs:HAs=1:2,BBB model with HBVPs:HAs=1:1,higher
same,PI permeability in comparison with the BBB model with HBVPs:HAs=1:2,BBB model with HBVPs:HAs=1:6,higher
same,permeability of propidium iodide relative to that of a single layer of the cultured HBMECs,"HBMECs co-cultured with HBVPs:HAs=1:2, condition medium PCM:ACM 1:1 for 7 days",39%
